What was measured:
[1] = xn = mol fraction of the nth substance listed; settings: 100 kPa, Liquid, x2 = 0.25; for electrical conductivity: Alternating current cell with electrodes; for viscosity: Capillary tube (Ostwald / Ubbelohde) method; for mass density: Pycnometric method
[2] = 101.33 kPa, Liquid; for viscosity: Capillary tube (Ostwald / Ubbelohde) method; for mass density: Pycnometric method

CC(N)=O [ethanamide] + N#C[S-].[K+]
[1]
Settings	electrical conductivity [S/m]	mass density [kg/m3]	viscosity [mPa·s]
298.15 K	0.117	1197.1	190.16
303.15 K	0.205	1193.7	127.31
308.15 K	0.311	1190.5	88.81
313.15 K	0.429	1187.7	63.77
318.15 K	0.574	1184.5	48.11

CCO [ethanol]
[2]
Settings	mass density [kg/m3]	viscosity [mPa·s]
298.15 K	785.2	1.096
303.15 K	781	1.003
308.15 K	776.7	0.914
313.15 K	772.3	0.834
318.15 K	766.3	0.764

Source: the NIST ThermoML archive (doi:10.1016/j.jct.2015.08.036)
